Assay results reported in patent US10328075B2, “Method of treatment and compounds for use therein” (Baker Heart and Diabetes Institute, priority 2015, dated 2019).

Legend:
hFPR1 [1] = target: T1, hFPR1 (Homo sapiens, UniProt P21462); assay: ERK1/2 phosphorylation (AlphaScreen SureFire) in hFPR1-FlpIn-CHO cells; format: cell-based
T1 construct: expressed in transfected cells
T1 sequence (P21462 1-350): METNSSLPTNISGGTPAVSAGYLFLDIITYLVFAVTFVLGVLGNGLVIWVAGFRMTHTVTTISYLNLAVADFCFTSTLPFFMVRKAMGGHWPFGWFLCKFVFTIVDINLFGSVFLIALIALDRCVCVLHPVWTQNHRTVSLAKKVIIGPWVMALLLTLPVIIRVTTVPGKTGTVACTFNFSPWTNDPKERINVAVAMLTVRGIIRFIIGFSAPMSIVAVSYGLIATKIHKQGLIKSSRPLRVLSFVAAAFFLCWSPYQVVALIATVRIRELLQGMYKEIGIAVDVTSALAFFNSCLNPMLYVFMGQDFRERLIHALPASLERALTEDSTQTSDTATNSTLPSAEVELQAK
Description: (§1) cDNDA construct and generation of stable cell lines: cDNA in pcDNA3.1^+ encoding the human formyl peptide receptors (FPR) subtypes, hFPR1, hFPR2 and hFPR3 was obtained from Invitrogen. The sequences for 3 hFPR receptors were amplified by PCR and cloned into the Gateway entry vector, pDONR202™, using the BP clonase enzyme mix, according to the manufactures' instructions (Invitrogen Inc, Carlsbad, Calif., USA). All hFPR receptors constructs in pDONR201™ were subsequently transfected into the pEF5/FRT/V5/dest vector using the LR clonase enzyme mix (Invitrogen). Receptor constructs (pEF5/FRT/V5/dest) were used to transfect FIp-In CHO cells as described previously (Valant C et al., PNAS, 2014). Cells were selected using 500 μg/mL hydromycin to generate cell lines stably expressing each receptor construct. Cells were maintained and cultured in high glucose DMEM supplemented with 10% FBS, 16 mM HEPES and 500 μg/mL hydromycin at 37° C. under a humidified atmosphere containing 5% CO2.
(§2) In the various assays described below, cells were plated into 96-well transparent cell culture plates at 4×10^4 cells per well, cultured overnight in serum-free media at 37° C. in 5% CO2.
Measurement of extracellular signal regulated kinase 1 and 2 phosphorylation (pERK1/2): Initial ERK1/2 phosphorylation at Thr202/Tyr204 time-course experiments were performed to determine the time at which ERK1/2 phosphorylation was maximal after stimulation by each agonist. Cells were seeded onto transparent 96-well cell culture plates at 4×10^4 cells per well. After 6 h, cells were washed once with PBS, and then incubated in serum-free DMEM overnight, to allow FBS-stimulated phosphorylated ERK1/2 levels to subside. […] 10% (v/v) FBS was used as a positive control, with vehicle controls also included. The reaction was terminated by removal of study drugs and lysis of cells with 100 μL of SureFire lysis buffer (TGR Biosciences). Cell were lysed in SureFire lysis buffer and transferred to 384-well opaque proxiplates. Under low-light conditions, a 1:120 (v:v) dilution of AlphaScreen beads (both acceptor and donor):Surefire reaction buffer was prepared, which was mixed with the activation buffer in a ratio of 6:1 (v:v), respectively. Plates were incubated in the dark at 37° C. for 1 h before the fluorescence signal was measured by a Fusion-α plate reader (PerkinElmer Life and Analytical Sciences, Foster city, CA, USA) with standard AlphaScreen settings. Data were normalized to the maximal response elicited by 10% (v/v) FBS at the same time point.
Receptor mediated pERK1/2 levels were determined using the AlphaScreen™ ERK1/2 SureFire™ kit, as described previously (Keov, P et al., 2014). For all experiments, 10% FBS was used as internal positive control to stimulate pERK1/2, and which the maximum responses were used for normalization of data, whilst vehicle was used as negative control.
(§3) Data analysis: All data were analysed using GraphPad Prism 6.0 (GraphPad Software, San Deigo, Calif., USA). Where appropriate, concentration-response curves were fitted to derive the maximal agonist effect (Emax), and the ligand potency estimate (pEC50), where Emax is the maximal possible response of the system (not the agonist), basal is the basal level of response in the absence of agonist, and pEC50 is the negative logarithm of the agonist concentration that gives a response halfway between Emax and basal.
In the present study, FIp-IN CHO cells and Gateway plasmid were obtained from Invitrogen Inc (Carlsbad, Calif., USA). The sequences for all 3 known human FPRs (hFPR1, hFPR2 and hFPR3) were amplified by PCR and cloned into the Gateway entry vector, pDONR202TM, using the BP clonase enzyme mix, according to the manufacturers' instructions. The hFPR pDONR201TM constructs were subsequently transfected into the pEF5/FRT/V5/dest vector using the LR clonase enzyme mix (Invitrogen).

hFPR1 [2] = target: T1, hFPR1; assay: [Ca2+]i mobilization in FlpIn-CHO cells stably expressing hFPR1; format: cell-based; design: Calcium Rmax: unit not given here
Description: as §1, §2
Intracellular calcium mobilization: Intracellular calcium mobilization was assayed as described previously (Keov, P et al., 2014). Briefly, cells were washed once using HEPES buffered saline (HBS) solution [150 mM NaCl, 2.2 mM CaCl2, 2.6 mM KCl, 1.2 mM MgCl2, 10 mM HEPEs, 10 mM D-Glucose, 0.5% (w/v) bovine serum albumin (BSA) and 4 mM probenecid] at pH 7.4, then treated with Fluo-4-AM (1 μM, in HBS/BSA/probenecid) for 60 min at 37° C. in 5% CO2 in the dark. Cells were then further washed and placed in HBS/BSA/probenecid solution for ligation addition and assay using the FLEXstation 3 plate reader (Molecular Devices, Sunnyvale, Calif.). For all experiments, peak change in fluorescence signal was normalized to the cellular response to 100 μM ATP, which was used as an internal positive control.
as §3
In the present study, FIp-IN CHO cells and Gateway plasmid were obtained from Invitrogen Inc (Carlsbad, Calif., USA). The sequences for all 3 known human FPRs (hFPR1, hFPR2 and hFPR3) were amplified by PCR and cloned into the Gateway entry vector, pDONR202TM, using the BP clonase enzyme mix, according to the manufacturers' instructions. The hFPR pDONR201TM constructs were subsequently transfected into the pEF5/FRT/V5/dest vector using the LR clonase enzyme mix (Invitrogen). Receptor constructs (pEF5/FRT/V5/dest) were used to transfect FIp-IN CHO cells, as described previously (Valant et al. 2014). Cells were selected using 500 μg/mL hydromycin to generate cell lines stably expressing each human receptor construct. Cells were maintained and cultured in high glucose Dulbecco's modified eagle medium (DMEM) supplemented with 10% fetal bovine serum (FBS, from JRH Biosciences, Lenexa, Kans., USA) and 500 μg/mL hydromycin B (Invitrogen Inc) at 37° C. under a humidified atmosphere containing 5% CO2. Cell were plated into 96-well transparent cell culture plates at 4×10^4 cells per well, cultured overnight in serum-free media at 37° C. in 5% CO2.
(ii) Intracellular Ca2+ mobilization: Intracellular Ca2+ mobilization was determined in stably-transfected recombinant hFPR CHO cells, as described previously (Valant et al. 2014).

[3] = Plasma levels and pharmacokinetics in mice; format: in vivo, mouse; settings: mouse, in vivo; Table 9; mice
hFPR1 [4] = target: T1, hFPR1; assay: Quantification of biased agonism (operational model) at hFPR1 in CHO cells; format: cell-based; settings: Table 9
Description: To quantify biased agonism mediated by each agonist across the various pathways ([Ca^2+], mobilization, pERK1/2, Akt1/2/3 and inhibition of cAMP accumulation), agonist concentration-response curves were refitted using the operation model normalized to the transduction ratio of a reference agonist (in this case, BIDI-002) as described previously (Stewart G D et al., 2009). Under these conditions, if the test agonist and the reference agonist activate the two pathways through a common receptor conformation, the log [bias factor] should be 0.0 (or bias factor different from 1.0), irrespective of differences in response amplification between pathways. In contrast, significant deviation of log [bias factor] from 0.0 (or bias factor different from 1.0) indicates the involvement of distinct conformations for the different agonists. All affinities, potencies, efficacies, and cooperativity parameters were estimated as logarithms (Christopoulos, 1998). Results are expressed as means±S.E. unless otherwise stated. Statistical analyses were by Student's t test, or one-way ANOVA followed by Dunnett's Comparison or Tukey's post-hoc test, as appropriate. Values of p<0.05 were considered statistically significant.
A “transduction ratio” is firstly derived for each response (τ/KA, where τ represents efficacy, and KA affinity, of the agonist for each GPCR conformational state), extracted from each concentration-response curve. “Bias factors” (ΔΔ(τ/KA)) were then calculated by normalizing the transduction ratio to a reference ligand (in this case, Cmpd43) and reference pathway, which here was Akt1/2/3(Thr308) phosphorylation. Lastly, bias factors were plotted on a ‘web of bias’ to visualize the potential for biased agonism. […] Under these conditions, if the test agonist and the reference agonist activate the two pathways through a common receptor conformation, the log [bias factor] should be 0.0 (i.e. the bias factor 1.0), irrespective of differences in response amplification between pathways. In contrast, significant deviation of log [bias factor] away from 0.0 (i.e. where the bias factor is different to 1.0) indicates the involvement of distinct conformations for the different agonists. All affinities, potencies, efficacies, and cooperativity parameters were estimated as logarithms (Kenakin et al. 2012).
Five signaling pathways were examined, namely pERK1/2-phosphorylation, Akt1/2/3(Ser473)-phosphorylation, Akt1(Thr308)-phosphorylation, increases in Ca2+i and inhibition of forskolin-induced cAMP accumulation. An operational model of agonism was fitted to each concentration-response curve to estimate a transduction ratio (τ/KA) for each agonist, at each pathway assessed, as described (FIG. 21B) (Kenakin et al. 2012). Transduction ratios were normalized to a reference agonist (Cmpd43) and a reference pathway (Akt1/2/3(Thr308)-phosphorylation), generating bias factors and therefore allowing quantitative cross-pathway comparison for each agonist.

[5] = Table 10, receptor not given, values of 10394/10396 equal the hFPR1 values of Table 9, read-out: ERK pEC50 (converted)
[6] = Table 10, receptor not given, ND = Not detectable
[7] = Table 10, receptor not given, values of 10394/10396 equal the hFPR1 values of Table 9
[8] = Table 10, receptor not given, ND = Not detectable, read-out: Calcium pEC50 (converted)

Structure (SMILES) | ERK Rmax (hFPR1 [1]; Table 10, receptor not given) | EC50 (hFPR1 [1]; [5]) [nM] | Calcium Rmax (hFPR1 [2]; [6]) | ERK pEC50 (hFPR1 [1]; [7]) | further results
COc1cccc(Cc2cc(C)nn(CC(=O)Nc3ccc(Cl)cc3)c2=O)n1 [MIPS-0014055] | 94 ± 11 | 1780 | 11 ± 2 | – | –
Cc1cc(Cc2cccc(F)c2)c(=O)n(C(C)C(=O)Nc2ccc(Br)cc2)n1 (stereo not shown) [MIPS-0008859] | 93 ± 7 | – | 18 ± 3 | 5.68 ± 16 | –
COc1ccccc1Cc1cc(C)nn(CC(=O)Nc2ccc(C)cc2)c1=O [MIPS-0014058] | 87 ± 1 | 1150 | 32 ± 1 | – | EC50 (hFPR1 [2]; [8]): 5010 nM
COc1cccc(Cc2cc(C)nn(C(C)C(=O)Nc3cccc(F)c3)c2=O)c1 (stereo not shown) [MIPS-0008745] | 50 ± 4 | – | – | 5.12 ± 0.38 | –
COc1ccc(NC(=O)Cn2nc(C)cc(Cc3c(OC)cccc3OC)c2=O)cc1 [MIPS-0014071] | 78 ± 2 | 2630 | 48 ± 7 | – | EC50 (hFPR1 [2]; [8]): 2820 nM
COc1cccc(Cc2cc(C)nn(C(C)C(=O)Nc3ccc4c(c3)OCO4)c2=O)c1 (stereo not shown) [MIPS-0008750] | 74 ± 7 | 5750 | 26 ± 6 | – | –
COc1cccc(Cc2cc(C)nn(C(C)C(=O)Nc3ccc(F)cc3)c2=O)c1 (stereo not shown) [MIPS-0008749] | 57 ± 2 | – | – | 5.07 ± 0.18 | –
COc1ccc(Cc2cc(C)nn(C(C)C(=O)Nc3ccc(Br)cc3)c2=O)cc1 (stereo not shown) [MIPS-0008853] | 81 ± 6 | – | 26 ± 6 | 5.58 ± 0.14 | –
Cc1cc(Cc2ccccn2)c(=O)n(CC(=O)Nc2ccc(Cl)cc2)n1 [MIPS-0014057] | 91 ± 4 | 603 | 45 ± 10 | – | EC50 (hFPR1 [2]; [8]): 4570 nM
Cc1cc(Cc2ccccc2F)c(=O)n(C(C)C(=O)Nc2ccc(Br)cc2)n1 (stereo not shown) [MIPS-0008858] | 91 ± 8 | – | 8 ± 2 | 5.75 ± 0.12 | –
Cc1cc(Cc2ccccn2)c(=O)n(CC(=O)Nc2ccc(Cl)cc2)n1 [MIPS-0010397] | 74 ± 3 | 1020 | 18 ± 8 | – | –
Cc1cc(Cc2ccc(F)cc2)c(=O)n(C(C)C(=O)Nc2ccc(Br)cc2)n1 (stereo not shown) [MIPS-0008857] | 89 ± 1 | – | 5 ± 1 | 5.74 ± 0.13 | –
CCc1ccc(NC(=O)Cn2nc(C)cc(Cc3ccccc3OC)c2=O)cc1 [MIPS-0014051] | 79 ± 9 | – | – | 5.30 ± 0.12 | –
Cc1cc(Cc2cccc3c2OCCO3)c(=O)n(CC(=O)Nc2ccc(Cl)cc2)n1 [MIPS-0014053] | 78 ± 13 | 1910 | – | – | –
COc1cccc(Cc2cc(C)nn(Cc3ccc(Cl)cc3)c2=O)c1OC [MIPS-0010394] | 82 ± 5 | 170 | 38 ± 2 | – | EC50 (hFPR1 [1]; Table 9, read-out: potency (pEC50) pERK1/2, hFPR1-FlpInCHO cells in vitro (converted)): 170 nM; Tmax [3]: 0.3 h; half-life [3]: 9.5 h; EC50 (hFPR1 [2]; Table 9, read-out: potency (pEC50) Ca^2+i, hFPR1-FlpInCHO cells in vitro (converted)): 407 nM; EC50 (hFPR1 [2]; [8]): 407 nM; Bias (away from Ca2+i), hFPR1-FlpInCHO cells in vitro (hFPR1 [4]): Slight
COc1cccc(Cc2cc(C)nn(C(C)C(=O)Nc3ccc(Cl)cc3)c2=O)c1 (stereo not shown) [MIPS008744] | 95 ± 5 | – | 20 ± 5 | 5.47 ± 0.12 | –
COc1ccccc1Cc1cc(C)nn(CC(=O)Nc2ccc(Cl)cc2)c1=O [MIPS-0010392] | 81 ± 2 | – | 17 ± 3 | 5.91 ± 0.13 | EC50 (hFPR1 [2]; [8]): 18200 nM
COc1ccc(OC)c(Cc2cc(C)nn(CC(=O)Nc3ccc(Cl)cc3)c2=O)c1 [MIPS-0010384] | 77 ± 3 | – | 19 ± 2 | 5.00 ± 0.37 | EC50 (hFPR1 [2]; [8]): 6030 nM
COc1ccccc1Cc1cc(C)nn(C(C)C(=O)Nc2ccc(Br)cc2)c1=O (stereo not shown) [MIPS-0008854] | 76 ± 3 | – | 26 ± 9 | 6.07 ± 0.11 | –
COc1cccc(Cc2cc(C)nn(C(C)C(=O)Nc3ccc4c(c3)OCO4)c2=O)c1 (stereo not shown) [MIPS-0008856] | 64 ± 4 | 12600 | 19 ± 3 | – | –
COc1ccc(NC(=O)Cn2nc(C)cc(Cc3ccccc3OC)c2=O)cc1 [MIPS-0014052] | 64 ± 6 | – | 13 ± 3 | 5.10 ± 0.23 | –
